Consider one compound from US11607432B2, “Probiotic compositions containing clostridiales for inhibiting inflammation” (Evelo Biosciences, Inc., priority 2014, dated 2023).

In one data set the test system is microbiome of the gut. Also on record: species or system C57Bl/6 female mice. To be noted: mouse, in vivo. The source says: (§1) The trillions of organisms forming the microbiome function as an organ system interconnected throughout the body. The possibility that modification of the microbiome in a given physical location may influence the microbiome at other sites in the body (distal augmentation) was investigated. Seven week old C57Bl/6 female mice were acclimatized for 7 days prior to the start of the study by daily handling and shuffling between cages. All mice were housed at three mice per cage in individually vented cages (Thoren, Hazleton, Pa.). At day 0, baseline fresh fecal pellets, and vaginal lavages with 100 μL of sterile double-distilled water were collected and immediately frozen at −80° C. for microbiome analysis. […] Water alone is not expected to influence the microbiome and acted as a negative control. […] The impact of oral vancomycin is therefore expected to be limited to the gastrointestinal tract such that microbiome changes elsewhere in the body (e.g. vagina) would be attributable to distal augmentation. […]
(§2) Isolation and sequencing of microbial DNA from the stool and vaginal samples was performed by DNA Genotek (Ottawa, ON, Canada). The V3-V4 region of the 16S ribosomal subunit was amplified with custom PCR primers and sequenced on an Illumina MiSeq to a minimum acceptable read depth of 25,000 sequences per sample. […]

A further data set relates to vaginal microbiome. Also on record: species or system C57Bl/6 female mice. To be noted: mouse, in vivo, po.
Excerpt: as §1, §2

The conditions of data set [1]: in vivo; cited from earlier work.

As for `CN[C@H](CC(C)C)C(=O)N[C@H]1C(=O)N[C@@H](CC(N)=O)C(=O)N[C@H]2C(=O)N[C@H]3C(=O)N[C@H](C(=O)N[C@H](C(=O)O)c4cc(O)cc(O)c4-c4cc3ccc4O)[C@H](O)c3ccc(c(Cl)c3)Oc3cc2cc(c3O[C@@H]2O[C@H](CO)[C@@H](O)[C@H](O)[C@H]2O[C@H]2C[C@](C)(N)[C@H](O)[C@H](C)O2)Oc2ccc(cc2Cl)[C@H]1O` [Vancomycin, vancomycin], the “impact on the microbiome of the gut (PCA at the family level, fecal samples day 0 to day 6)” value in the data set with microbiome of the gut was “strong impact”. Moreover, the “day 0 to day 6 pattern in vaginal samples (PCA)” value in the data set with vaginal microbiome was “overall difference between the PBS and oral vancomycin groups”. Also, the “absorption from the gut after oral administration” value in data set [1] is “poorly absorbed from the gut”.
